This assay has as its system HL-60 (human acute myeloid leukemia cells). The assay is described as follows: Evaluation of anti-cancer activity: HL-60 cell survival by modified Mosmann (MTT) method. In kind it is cell-based. As to conditions: read-out: IC50 (concentration of inhibitor that inhibits cell growth to 50%), HL-60 cells, 24 hours culture with compound, average of at least three experiments. The protocol:
<Evaluation of Anti-Cancer Activity>
HL-60 (human acute myeloid leukemia cells) as the cancerous cells was cultured under a 5% CO2 atmosphere in a wet incubator at 37° C. in a Roswell Park Memorial Institute medium (RPMI 1640) supplemented with 10% fetal bovine serum and 1% antibiotic and antimycotic.
The cells were washed with PBS and counted. A 1×10^6 cells/mL suspension was then prepared using the same medium. The suspension was added to a sterilized 96-well microplate at a density of 50000 cells per well.
The number of survived cells was then evaluated by a modified Mosmann method (T. Mosmann, J. Immunol. Method (1983) 65, 55-63). That is, a solution of a tetrazolium salt (3,[4,5-dimethylthiazol-2-yl]-2,5-diphenyltetrazolium bromide (MTT)) was added, and the culture was continued for 3 hours under the same conditions. Formazan crystals generated by enzymatic activity of the mitochondria in the cells were dissolved in 0.04 mol HCl/isopropyl alcohol and the absorbance at 595 nm was measured using a microplate reader (Bio-Rad 550). In order to eliminate the background, the absorbance at 630 nm was measured and subtracted from the observed absorbance at 595 nm. […] Note that in calculating the IC50 value, the average of values of at least three experiments conducted under the same conditions was used.
For “Bis((R)-1-((S)-2-(diphenylphosphino)ferrocenyl)ethyldicyclohexylphosphine)gold(I)chloride [Example 2]”, the IC50 is 8.69 µM.
The value for “bis(1,1′-bis-(diphenylphosphino)-2,2-bis-[(S)-4-isopropyl-2-yl]ferrocene)digold(I)dichloride [Example 5]” was 0.803 µM.
The value for “Bis((R)-1-((S)-2-(dicyclohexylphosphino)ferrocenyl)ethyldiphenylphosphine)gold(I)chloride [Example 3]” was 7.92 µM.
Take “bis(1,1′-bis-(diphenylphosphino)-2,2-bis-[(S)-4-tert-butyl-2-yl]ferrocene)digold(I)dichloride [Example 6]”: the IC50 came out at 2.31 µM.
The value for “Bis((R)-1-((S)-2-(dicyclohexylphosphino)ferrocenyl)ethyldicyclohexylphosphine)gold(I)chloride [Example 1]” was 19.2 µM.
Next, “bis(1,1′-bis-(diphenylphosphino)-2,2-bis-[(S)-4-sec-butyl-2-yl]ferrocene)digold(I)dichloride [Example 8]”: 3.54 µM; “bis(1,1′-bis-(diphenylphosphino)-2,2-bis-[(S)-4-isobutyl-2-yl]ferrocene)digold(I)dichloride [Example 7]”: 2.1 µM.
The value for “Bis((S)-1-((R)-2-(dicyclohexylphosphino)ferrocenyl)ethyldiphenylphosphine)gold(I)chloride [Example 4]” was 9.21 µM.
